Columns and labels:
RIF tumor = assay: In vivo photosensitizing activity (tumor response after laser illumination); design: species or system C3H mice
Description: Preliminary In Vivo Activity:
RIF rumors were implanted subcutaneously into the axilla of 5-7 week old female C3H mice. When tumors grew to about 5 mm diameter, mice were injected with photosensitizers at various doses. The mice (6 mice/group) were restrained in aluminum holders and each tumor illuminated with 135 J/cm^2 light from a laser tuned at the longest wavelength absorption maximum of the photosensitizers. The percentage of short-term control was recorded daily.
*Six mice/group (RIF tumor). 1.0 μmol/kg, 705 nm, 135 J/cm^2 (24 h
*Six mice/group (RIF tumor). 135 J/cm^2

[1] = Fluorescence spectroscopy in dichloromethane; assay type: physicochemical
Description: Fluorescence Spectroscopy:
The fluorescence spectra of HPPH 2, purpurin-imide 4 and their corresponding carotene conjugates 3 and 6 were measured in dichloromethane. In the case of HPPH and its carotenoid analog, excitation at 660 nm gave strong emission at 670 nm. Similarly, purpurin imide and its carotenoid analog on excitation at 705 nm produced emission at 715 nm. Due to their strong fluorescence, and higher uptake in tumors, these compounds show great potential for use as diagnostic agents for malignant and non-malignant tumors.

[2] = Partition Coefficient (log P); assay type: physicochemical
[3] = Singlet oxygen production in oxygen saturated toluene, singlet oxygen phosphorescence at 1270 nm; assay type: physicochemical; conditions: for singlet oxygen production: phosphorescence at 1270 nm
Description: The carboxylic acid functionality was first activated by preparing carbodiimide analog (in situ) before condensing with amino carotene. The structure of the conjugate was confirmed by NMR and mass spectrometry. The singlet oxygen production by HPPH and its carotene conjugate was measured in oxygen saturated toluene solutions by monitoring the singlet oxygen phosphorescence at 1270 nm. […] Thus, a complete photoprotection was achieved.

[4] = tested on: radiation induced fibrosarcoma (RIF) tumor; assay: Tumor uptake by in vivo reflection spectroscopy; design: species or system C3H mice; conditions: 5 micro mole/Kg; tumor vs skin fold; 3 h and 24 h post injection
Description: Determination of Tumor Uptake by In Vivo Reflection Spectroscopy:
The tumor uptake of the parent photosensitizer 2 (HPPH), FIG. 1, and purpurin with a fused imide ring 4, FIG. 2, were compared to the corresponding carotene conjugate 3 and 6 by in vivo reflection spectroscopy.
For these experiments, C3H mice with an axillary radiation induced fibrosarcoma (RIF) tumor were injected with the drug in an amount of 5 micro mole/Kg of body weight and the in vivo absorption specta were taken at various time intervals. FIGS. 3 and 4 respectively show the uptake of HPPH 2 and purpurin-imide 4 at 24 h post injection. FIGS. 5 and 6 show the uptake of the HPPH-carotene conjugate at 3 h and 24 h post injection.

With `CCCCCCCOC(C)c1c(C)c2cc3nc(c4c5[nH]c(cc6nc(cc1[nH]2)C(C)=C6CC)c(C)c5C(=O)N(CCCCCC)C4=O)[C@@H](CCC(=O)Nc1ccc(/C=C/C(C)=C/C=C/C(C)=C/C=C/C=C(C)/C=C/C=C(C)/C=C/C2=C(C)CCCC2(C)C)cc1)[C@@H]3C` (stereo partly shown) [Purpurin-imide-carotene (6)] the “TUMOR RESPONSE (all days)” value (RIF tumor; 1.0 μmol/kg, 705 nm, 24 between inj. & treatment, 135 J/cm^2, Table 2) was “NO RESPONSE” and the fluorescence emission wavelength ([1]; excitation at 705 nm) was 715 nm.

Work on `CCCOC(C)c1c(C)c2cc3nc(c4c5[nH]c(cc6nc(cc1[nH]2)C(C)=C6CC)c(C)c5C(=O)N(CCC)C4=O)[C@@H](CCC(=O)OC)[C@@H]3C` (stereo partly shown) [Propyl Propyl] yielded a logP [2] of 7.22.

`CCCCCCN1C(=O)c2c3nc(cc4[nH]c(cc5nc(cc6[nH]c2c(c6C)C1=O)C(CC)=C5C)c(C(C)OCCC)c4C)[C@@H](C)[C@@H]3CCC(=O)OC` (stereo partly shown) [Propyl Hexyl] gave a logP [2] of 8.72.

For `CCCCCCCOC(C)c1c(C)c2cc3nc(c4c5[nH]c(cc6nc(cc1[nH]2)C(C)=C6CC)c(C)c5C(=O)N(CCCCCC)C4=O)[C@@H](CCC(=O)OC)[C@@H]3C` (stereo partly shown) [Purpurin-imide (4), heptyl ether analog of N-hexyl purpurin imide], the “% TUMOR RESPONSE day 7” value (RIF tumor; 1.0 μmol/kg, 705 nm, 24 between inj. & treatment, 135 J/cm^2, day 7, Table 2) was 100%, the “% TUMOR RESPONSE day 21” value (RIF tumor; 1.0 μmol/kg, 705 nm, 24 between inj. & treatment, 135 J/cm^2, day 21, Table 2) was 100% and the “% TUMOR RESPONSE day 30” value (RIF tumor; 1.0 μmol/kg, 705 nm, 24 between inj. & treatment, 135 J/cm^2, day 30, Table 2) was 100%. For the same compound, the “% TUMOR RESPONSE day 90” value (RIF tumor; 1.0 μmol/kg, 705 nm, 24 between inj. & treatment, 135 J/cm^2, day 90, Table 2) was 83%, the “Tumor Response days 1-2” value (RIF tumor; 1.0 μmol/kg, 705 nm, 135 J/cm^2, 24 h post injection, Table 1) was 100% and the “mice tumor free on day 90” value (RIF tumor; 1.0 μmol/kg, 705 nm, 135 J/cm^2, day 90) was 5/6. For the same compound, the “in vivo activity among the compounds tested” value (RIF tumor; dose of 1.0 μmol/kg) was “most effective” and the fluorescence emission wavelength ([1]; excitation at 705 nm) was 715 nm.

In the case of `CCCCCCOC(C)c1c(C)c2cc3nc(c4c5[nH]c(cc6nc(cc1[nH]2)C(C)=C6CC)c(C)c5C(=O)N(CCC)C4=O)[C@@H](CCC(=O)OC)[C@@H]3C` (stereo partly shown) [Hexyl Propyl], the “Tumor Response day 7” value (RIF tumor; 0.5 μmol, 705 nm, 135 J/cm^2, 24 h post injection, day 7, Table 1) is reported as 66%, the “Tumor Response day 14” value (RIF tumor; 0.5 μmol, 705 nm, 135 J/cm^2, 24 h post injection, day 14, Table 1) is reported as 33% and the “Tumor Response day 21” value (RIF tumor; 0.5 μmol, 705 nm, 135 J/cm^2, 24 h post injection, day 21, Table 1) is reported as 17%. For the same compound, the “Tumor Response day 30” value (RIF tumor; 0.5 μmol, 705 nm, 135 J/cm^2, 24 h post injection, day 30, Table 1) was 17%, the “Tumor Response day 90” value (RIF tumor; 0.5 μmol, 705 nm, 135 J/cm^2, 24 h post injection, day 90, Table 1) was 17% and the “Tumor Response days 1-2” value (RIF tumor; 0.5 μmol, 705 nm, 135 J/cm^2, 24 h post injection, Table 1) was 100%. The logP [2] was 8.72.

`CCCN1C(=O)c2c3nc(cc4[nH]c(cc5nc(cc6[nH]c2c(c6C)C1=O)C(CC)=C5C)c(C(C)OC)c4C)[C@@H](C)[C@@H]3CCC(=O)OC` (stereo partly shown) [Methyl Propyl] showed a logP [2] of 6.22.

With `CCCCCCOC(C)c1c(C)c2cc3nc(c4c5[nH]c(cc6nc(cc1[nH]2)C(C)=C6CC)c(C)c5C(=O)C4)[C@@H](CCC(=O)O)[C@@H]3C` (stereo partly shown) [HPPH (2), Hexyl ether analog of pyropheophorbide-a, reference compound] the “fluorescence yield (Φf)” value [3] was 0.48, the “singlet oxygen yield (ΦΔ)” value ([3]; oxygen saturated toluene) was 0.45 and the singlet oxygen production ([3]; oxygen saturated toluene) was “Ample production”. The “% TUMOR RESPONSE day 1-2” value (RIF tumor; 0.47 μmol/kg, 665 nm, 24 between inj. & treatment, 135 J/cm^2, day 1-2, Table 2) was 100%, the “% TUMOR RESPONSE day 7” value (RIF tumor; 0.47 μmol/kg, 665 nm, 24 between inj. & treatment, 135 J/cm^2, day 7, Table 2) was 100% and the “% TUMOR RESPONSE day 30” value (RIF tumor; 0.47 μmol/kg, 665 nm, 24 between inj. & treatment, 135 J/cm^2, day 30, Table 2) was 50%. The “% TUMOR RESPONSE day 90” value (RIF tumor; 0.47 μmol/kg, 665 nm, 24 between inj. & treatment, 135 J/cm^2, day 90, Table 2) was 50%, the “% TUMOR RESPONSE day 21” value (RIF tumor; 0.47 umol/kg, 504 h) was 80% and the fluorescence emission wavelength ([1]; excitation at 660 nm) was 670 nm.

`CCCCCCN1C(=O)c2c3nc(cc4[nH]c(cc5nc(cc6[nH]c2c(c6C)C1=O)C(CC)=C5C)c(C(C)OC)c4C)[C@@H](C)[C@@H]3CCC(=O)OC` (stereo partly shown) [Methyl Hexyl] gave a logP [2] of 7.72.

With `CCCCCCOC(C)c1c(C)c2cc3nc(c4c5[nH]c(cc6nc(cc1[nH]2)C(C)=C6CC)c(C)c5C(=O)C4)[C@@H](CCC(=O)Nc1ccc(/C=C/C(C)=C/C=C/C(C)=C/C=C/C=C(C)/C=C/C=C(C)/C=C/C2=C(C)CCCC2(C)C)cc1)[C@@H]3C` (stereo partly shown) [HPPH-carotene (3)] the singlet oxygen production ([3]; oxygen saturated toluene) was “did not produce singlet oxygen”, the “tumor uptake compared to parent compound” value [4] was “significant uptake of the drug in the tumor vs the skin fold” and the “TUMOR RESPONSE (all days)” value (RIF tumor; 0.47 μmol/kg, 665 nm, 24 between inj. & treatment, 135 J/cm^2, Table 2) was “NO RESPONSE”. It also gave a fluorescence emission wavelength ([1]; excitation at 660 nm) of 670 nm.

Source: patent US6103751A, “Carotene analogs of porphyrins, chlorins and bacteriochlorins as therapeutic and diagnostic agents” (Health Research, Inc., priority 1998, dated 2000)
